Assay results: PubChem BioAssay (NCI)
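Following 48 hours of exposure in 96-well plates, responses at five concentrations were used to interpolate endpoints linearly. TGI denotes the concentration required for complete inhibition of growth.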

Legend:
Test in all cases: DTP human tumour cell line panel, 48 h
UO-31 renal = system: UO-31 renal
HT29 colon = system: HT29 colon
NCI-H23 lung = system: NCI-H23 lung
HCC-2998 colon = system: HCC-2998 colon
SK-MEL-28 melanoma = system: SK-MEL-28 melanoma
NCI/ADR-RES ovarian = system: NCI/ADR-RES ovarian
OVCAR-4 ovarian = system: OVCAR-4 ovarian
ACHN renal = system: ACHN renal
OVCAR-8 ovarian = system: OVCAR-8 ovarian
IGROV1 ovarian = system: IGROV1 ovarian
HOP-92 NSCLC = system: HOP-92 NSCLC
CAKI-1 renal = system: CAKI-1 renal
RXF 393 renal = system: RXF 393 renal
CCRF-CEM leukemia = system: CCRF-CEM leukemia
SK-OV-3 ovarian = system: SK-OV-3 ovarian
OVCAR-5 ovarian = system: OVCAR-5 ovarian
PC-3 prostate = system: PC-3 prostate
M14 melanoma = system: M14 melanoma
HCT-15 colon = system: HCT-15 colon
HS 578T breast = system: HS 578T breast
SF-268 CNS = system: SF-268 CNS
TK-10 renal = system: TK-10 renal
SF-539 CNS = system: SF-539 CNS
SK-MEL-5 melanoma = system: SK-MEL-5 melanoma
EKVX NSCLC = system: EKVX NSCLC
BT-549 breast = system: BT-549 breast
786-0 renal = system: 786-0 renal
U251 CNS = system: U251 CNS
MOLT-4 leukemia = system: MOLT-4 leukemia
A498 renal = system: A498 renal
UACC-62 melanoma = system: UACC-62 melanoma
SNB-19 CNS = system: SNB-19 CNS
LOX IMVI melanoma = system: LOX IMVI melanoma
HL-60(TB) leukemia = system: HL-60(TB) leukemia
KM12 colon = system: KM12 colon
SW-620 colon = system: SW-620 colon
RPMI-8226 leukemia = system: RPMI-8226 leukemia
A549 NSCLC = system: A549 NSCLC
K-562 leukemia = system: K-562 leukemia
MCF7 breast = system: MCF7 breast
NCI-H460 lung = system: NCI-H460 lung
SN12C renal = system: SN12C renal
OVCAR-3 ovarian = system: OVCAR-3 ovarian

N#Cc1nc(C2=C(Cl)c3ccccc3OC2)[nH]c1C#N
TGI (UO-31 renal): 59.9 µM | TGI (HT29 colon): 41.5 µM | TGI (NCI-H23 lung): 69.1 µM | TGI (HCC-2998 colon): 61.8 µM | TGI (SK-MEL-28 melanoma): 56.8 µM | TGI (NCI/ADR-RES ovarian): > 100 µM | TGI (OVCAR-4 ovarian): > 100 µM | TGI (ACHN renal): > 100 µM | TGI (OVCAR-8 ovarian): > 100 µM | TGI (IGROV1 ovarian): > 100 µM | TGI (HOP-92 NSCLC): 31 µM | TGI (CAKI-1 renal): > 100 µM | TGI (RXF 393 renal): 38.8 µM | TGI (CCRF-CEM leukemia): > 100 µM | TGI (SK-OV-3 ovarian): > 100 µM | TGI (OVCAR-5 ovarian): > 100 µM | TGI (PC-3 prostate): 71.7 µM | TGI (M14 melanoma): 34.2 µM | TGI (HCT-15 colon): > 100 µM | TGI (HS 578T breast): > 100 µM | TGI (SF-268 CNS): > 100 µM | TGI (TK-10 renal): > 100 µM | TGI (SF-539 CNS): 45.2 µM | TGI (SK-MEL-5 melanoma): 51.1 µM | TGI (EKVX NSCLC): > 100 µM | TGI (BT-549 breast): 48 µM | TGI (786-0 renal): > 100 µM | TGI (U251 CNS): 75.9 µM | TGI (MOLT-4 leukemia): 40.5 µM | TGI (A498 renal): 66.1 µM | TGI (UACC-62 melanoma): 64.3 µM | TGI (SNB-19 CNS): > 100 µM | TGI (LOX IMVI melanoma): 45.6 µM | TGI (HL-60(TB) leukemia): 70.7 µM | TGI (KM12 colon): 71.9 µM | TGI (SW-620 colon): > 100 µM | TGI (RPMI-8226 leukemia): 61 µM | TGI (A549 NSCLC): > 100 µM | TGI (K-562 leukemia): > 100 µM | TGI (MCF7 breast): 70 µM | TGI (NCI-H460 lung): 75.4 µM | TGI (SN12C renal): > 100 µM | TGI (OVCAR-3 ovarian): 70.9 µM
